{"source": "paper PMC7048192", "about": "“7-Acylamino-3H-1,2-benzoxathiepine 2,2-dioxides as new isoform-selective carbonic anhydrase IX and XII inhibitors” (Journal of Enzyme Inhibition and Medicinal Chemistry, 2020)", "experiment_in_all_cases": "stopped-flow CO2 hydrase assay", "format_in_all_cases": "biochemical", "key": {"hCA II": {"biological_target": "T1, hCA II (Homo sapiens, UniProt P00918)", "T1 construct": "gene CA2; recombinant, obtained in-house", "settings": "read-out: KI (nM)^a,b / hCA I"}, "hCA XII": {"biological_target": "T2, hCA XII (Homo sapiens, UniProt O43570)", "T2 construct": "gene CA12; recombinant, obtained in-house", "T2 sequence (O43570 25-354)": "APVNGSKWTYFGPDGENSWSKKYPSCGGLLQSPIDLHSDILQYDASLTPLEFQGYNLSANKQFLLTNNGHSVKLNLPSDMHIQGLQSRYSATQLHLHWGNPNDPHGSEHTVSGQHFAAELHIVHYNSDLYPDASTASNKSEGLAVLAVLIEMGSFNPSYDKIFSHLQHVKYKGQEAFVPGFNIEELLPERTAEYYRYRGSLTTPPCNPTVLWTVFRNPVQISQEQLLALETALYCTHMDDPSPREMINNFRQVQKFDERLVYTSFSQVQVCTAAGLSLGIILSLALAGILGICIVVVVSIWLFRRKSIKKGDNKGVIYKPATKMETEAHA", "settings": "read-out: KI (nM)^a,b / hCA XII", "source_text": "stopped-flow CO2 hydrase assay on hCA XII"}, "hCA I": {"biological_target": "T3, hCA I (Homo sapiens, UniProt P00915)", "T3 construct": "gene CA1; recombinant, obtained in-house", "T3 sequence (P00915 2-261)": "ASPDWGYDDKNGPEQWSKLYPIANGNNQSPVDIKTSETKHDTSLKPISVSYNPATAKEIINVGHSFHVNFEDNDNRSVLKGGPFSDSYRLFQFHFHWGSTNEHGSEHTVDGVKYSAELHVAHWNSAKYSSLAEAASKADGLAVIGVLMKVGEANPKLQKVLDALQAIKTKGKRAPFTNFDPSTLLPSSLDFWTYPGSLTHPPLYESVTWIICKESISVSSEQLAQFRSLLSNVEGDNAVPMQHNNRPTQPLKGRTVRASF", "settings": "read-out: KI (nM)^a,b / hCA I", "source_text": "stopped-flow CO2 hydrase assay on hCA I"}, "hCA IX": {"biological_target": "T4, hCA IX (Homo sapiens, UniProt Q16790)", "T4 construct": "gene CA9; recombinant, obtained in-house", "settings": "read-out: KI (nM)^a,b / hCA IX", "source_text": "stopped-flow CO2 hydrase assay on hCA IX"}}, "data": [{"molecule": "CC(=O)Nc1ccc2c(c1)C=CCS(=O)(=O)O2", "note": "[compound 8, N-(2,2-Dioxido-3H-1,2-benzoxathiepin-7-yl)acetamide]", "values": [{"measurement": "Ki", "setting": "hCA II", "value": "> 100000", "unit": "nM"}, {"measurement": "Ki", "setting": "hCA XII", "value": 162, "unit": "nM"}, {"measurement": "Ki", "setting": "hCA I", "value": "> 100000", "unit": "nM"}, {"measurement": "Ki", "setting": "hCA IX", "value": 61.8, "unit": "nM"}]}, {"molecule": "O=C(Nc1ccc2c(c1)C=CCS(=O)(=O)O2)c1ccccc1", "note": "[compound 9, N-(2,2-Dioxido-3H-1,2-benzoxathiepin-7-yl)benzamide]", "values": [{"measurement": "Ki", "setting": "hCA II", "value": "> 100000", "unit": "nM"}, {"measurement": "Ki", "setting": "hCA XII", "value": 370, "unit": "nM"}, {"measurement": "Ki", "setting": "hCA I", "value": "> 100000", "unit": "nM"}, {"measurement": "Ki", "setting": "hCA IX", "value": 209, "unit": "nM"}]}, {"molecule": "Cc1ccc(C(=O)Nc2ccc3c(c2)C=CCS(=O)(=O)O3)cc1", "note": "[compound 10, N-(2,2-Dioxido-3H-1,2-benzoxathiepin-7-yl)-4-methy benzamide]", "values": [{"measurement": "Ki", "setting": "hCA II", "value": "> 100000", "unit": "nM"}, {"measurement": "Ki", "setting": "hCA XII", "value": 309, "unit": "nM"}, {"measurement": "Ki", "setting": "hCA I", "value": "> 100000", "unit": "nM"}, {"measurement": "Ki", "setting": "hCA IX", "value": 83, "unit": "nM"}]}, {"molecule": "O=C(Nc1ccc2c(c1)C=CCS(=O)(=O)O2)c1ccc(Br)cc1", "note": "[compound 11, N-(2,2-Dioxido-3H-1,2-benzoxathiepin-7-yl)4-bromobenzamide]", "values": [{"measurement": "Ki", "setting": "hCA II", "value": "> 100000", "unit": "nM"}, {"measurement": "Ki", "setting": "hCA XII", "value": 141, "unit": "nM"}, {"measurement": "Ki", "setting": "hCA I", "value": "> 100000", "unit": "nM"}, {"measurement": "Ki", "setting": "hCA IX", "value": 353, "unit": "nM"}]}, {"molecule": "O=C(Nc1ccc2c(c1)C=CCS(=O)(=O)O2)c1ccccc1I", "note": "[compound 12, N-(2,2-Dioxido-3H-1,2-benzoxathiepin-7-yl)-2-iodobenzamide]", "values": [{"measurement": "Ki", "setting": "hCA II", "value": "> 100000", "unit": "nM"}, {"measurement": "Ki", "setting": "hCA XII", "value": 644, "unit": "nM"}, {"measurement": "Ki", "setting": "hCA I", "value": "> 100000", "unit": "nM"}, {"measurement": "Ki", "setting": "hCA IX", "value": 45.4, "unit": "nM"}]}, {"molecule": "O=C(Nc1ccc2c(c1)C=CCS(=O)(=O)O2)c1ccccc1Br", "note": "[compound 13, N-(2,2-Dioxido-3H-1,2-benzoxathiepin-7-yl)-2-bromobenzamide]", "values": [{"measurement": "Ki", "setting": "hCA II", "value": "> 100000", "unit": "nM"}, {"measurement": "Ki", "setting": "hCA XII", "value": 96.2, "unit": "nM"}, {"measurement": "Ki", "setting": "hCA I", "value": "> 100000", "unit": "nM"}, {"measurement": "Ki", "setting": "hCA IX", "value": 66.8, "unit": "nM"}]}, {"molecule": "O=C(Nc1ccc2c(c1)C=CCS(=O)(=O)O2)c1ccccc1F", "note": "[compound 14, N-(2,2-Dioxido-3H-1,2-benzoxathiepin-7-yl)-2-fluorobenzamide]", "values": [{"measurement": "Ki", "setting": "hCA II", "value": "> 100000", "unit": "nM"}, {"measurement": "Ki", "setting": "hCA XII", "value": 40.3, "unit": "nM"}, {"measurement": "Ki", "setting": "hCA I", "value": "> 100000", "unit": "nM"}, {"measurement": "Ki", "setting": "hCA IX", "value": 74.6, "unit": "nM"}]}, {"molecule": "O=C(Nc1ccc2c(c1)C=CCS(=O)(=O)O2)c1ccccc1C(F)(F)F", "note": "[compound 15, N-(2,2-Dioxido-3H-1,2-benzoxathiepin-7-yl)-2-(trifluoromethyl)benzamide]", "values": [{"measurement": "Ki", "setting": "hCA II", "value": "> 100000", "unit": "nM"}, {"measurement": "Ki", "setting": "hCA XII", "value": 8.7, "unit": "nM"}, {"measurement": "Ki", "setting": "hCA I", "value": "> 100000", "unit": "nM"}, {"measurement": "Ki", "setting": "hCA IX", "value": 19.7, "unit": "nM"}]}, {"molecule": "O=C(Nc1ccc2c(c1)C=CCS(=O)(=O)O2)c1cccs1", "note": "[compound 16, N-(2,2-Dioxido-3H-1,2-benzoxathiepin-7-yl)thiophene-2-carboxamide]", "values": [{"measurement": "Ki", "setting": "hCA II", "value": "> 100000", "unit": "nM"}, {"measurement": "Ki", "setting": "hCA XII", "value": 73.2, "unit": "nM"}, {"measurement": "Ki", "setting": "hCA I", "value": "> 100000", "unit": "nM"}, {"measurement": "Ki", "setting": "hCA IX", "value": 178, "unit": "nM"}]}, {"molecule": "O=C(Nc1ccc2c(c1)C=CCS(=O)(=O)O2)c1ccco1", "note": "[compound 17, N-(2,2-Dioxido-3H-1,2-benzoxathiepin-7-yl)furan-2-carboxamide]", "values": [{"measurement": "Ki", "setting": "hCA II", "value": "> 100000", "unit": "nM"}, {"measurement": "Ki", "setting": "hCA XII", "value": 134, "unit": "nM"}, {"measurement": "Ki", "setting": "hCA I", "value": "> 100000", "unit": "nM"}, {"measurement": "Ki", "setting": "hCA IX", "value": 210, "unit": "nM"}]}]}
